Results as given in patent publication US11208387B2, “Macrocyclic broad spectrum antibiotics” (Genentech, Inc., priority 2019, dated 2021).
≈ marks a conversion by molar mass, not a printed value. Like-named read-outs stand apart in the source and are kept apart here.

Assays:
Experiment in all cases: Serum MIC, broth micro-dilution
Assay type in all cases: cell-based
[1] = test system: Klebsiella pneumoniae ATCC 700603; conditions: Klebsiella pneumoniae, ATCC700603; 50% v/v mouse serum in Mueller Hinton II cation adjusted Broth, 35° C., 22 hours; Table 4; read-out: K pneumoniae 700603 Serum MIC
Procedure, shortened: (§1)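 MIC read after 22 h at 35° C by CLSI broth micro-dilution, with medium containing 50% v/v mouse serum in cation-adjusted Mueller Hinton II broth. Ten 2-fold compound concentrations were tested, starting at 64, 4, 0.5 or 0.13 μg/mL.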

[2] = test system: Escherichia coli strain ATCC 25922; conditions: Escherichia coli, ATCC25922; 50% v/v mouse serum in Mueller Hinton II cation adjusted Broth, 35° C., 22 hours; Table 4; read-out: E. coli 25922 Serum MIC
Procedure, shortened: as §1

[3] = test system: Acinetobacter baumannii ATCC 17978; conditions: Acinetobacter baumannii, ATCC17978, 50% v/v mouse serum in Mueller Hinton II cation adjusted Broth, 35° C., 22 hours
Procedure, shortened: as §1

[4] = test system: Pseudomonas aeruginosa PA01; conditions: Pseudomonas aeruginosa, PA01; 50% v/v mouse serum in Mueller Hinton II cation adjusted Broth, 35° C., 22 hours; Table 4; read-out: P. aeruginosa 01 Serum MIC
Procedure, shortened: as §1

[5] = Table 4, read-out: A. baumanii 17978 Serum MIC
[6] = Table 5, read-out: Acinetobacter baumanii 17978 Serum MIC

Structure (SMILES) | MIC [1] [µM] | MIC [2] [µM] | MIC [3, 5] [µM] | MIC [3, 6] [µM] | MIC [4] [µM]
C[C@@H]1NC(=O)[C@@H](N(C)C(=O)[C@H](CNS(N)(=O)=O)NC(=O)c2c(N)nc(-c3ccc(C(C)(C)C)cc3)nc2Cl)c2cc(OC[C@H](O)CN)c(O)c(c2)-c2cc(ccc2OC[C@H](O)CN)C[C@@H](C(=O)O)NC1=O [Example 53, (8S,11S,14S)-14-[[(2S)-2-[[4-amino-2-(4-tert-butylphenyl)-6-chloro-pyrimidine-5-carbonyl]amino]-3-(sulfamoylamino)-propanoyl]-methyl-amino]-3,17-bis[(2R)-3-amino-2-hydroxy-propoxy]-18-hydroxy-11-methyl-10,13-dioxo-9,12-diazatri-cyclo[13.3.1.12,6]icosa-1(18),2(20),3,5,15(19), 16-hexaene-8-carboxylic acid] | 0.5 (≈ 0.514 µg/mL) | 0.38 (≈ 0.391 µg/mL) | 6 (≈ 6.17 µg/mL) | 6 (≈ 6.17 µg/mL) | 3 (≈ 3.09 µg/mL)
Cc1nc(-c2ccc(C3(C)CC3)cc2)nc(C)c1C(=O)N[C@@H](CNS(N)(=O)=O)C(=O)N(C)[C@@H]1C(=O)N[C@@H](C)C(=O)N[C@H](C(=O)O)Cc2ccc(OC[C@H](O)CN)c(c2)-c2cc1cc(OC[C@H](O)CN)c2O [Example 15, (8S,11S,14S)-18-hydroxy-11-methyl-14-[methyl-[(2S)-2-[[4,6-dimethyl-2-[4-(1-methylcyclo-propyl)phenyl]-pyrimidine-5-carbonyl]amino]-3-(sulfamoylamino)-propanoyl]amino]-10,13-dioxo-3,17-bis[(2R)-3-amino-2-hydroxy-propoxy]-9,12-diazatricyclo-[13.3.1.12,6]icosa-1(18),2(20),3,5,15(19), 16-hexaene-8-carboxylic acid] | 0.5 (≈ 0.503 µg/mL) | 0.5 (≈ 0.503 µg/mL) | 8 (≈ 8.04 µg/mL) | 8 (≈ 8.04 µg/mL) | 8 (≈ 8.04 µg/mL)
Cc1nc(-c2ccc(CC(C)(C)C)cc2)nc(N)c1C(=O)N[C@@H](CNS(N)(=O)=O)C(=O)N(C)[C@@H]1C(=O)N[C@@H](C)C(=O)N[C@H](C(=O)O)Cc2ccc(OC[C@H](O)CN)c(c2)-c2cc1cc(OC[C@H](O)CN)c2O [Example 42, (8S,11S,14S)-14-[[(2S)-2-[[4-amino-2-[4-(2,2-dimethyl-propyl)phenyl]-6-methyl-pyrimidine-5-carbonyl]amino]-3-(sulfamoylamino)-propanoyl]-methyl-amino]-3,17-bis[(2R)-3-amino-2-hydroxy-propoxy]-18-hydroxy-11-methyl-10,13-dioxo-9,12-diazatri-cyclo[13.3.1.12,6]icosa-1(18),2(20),3,5,15(19), 16-hexaene-8-carboxylic acid] | 0.75 (≈ 0.767 µg/mL) | 0.5 (≈ 0.511 µg/mL) | 8 (≈ 8.18 µg/mL) | 8 (≈ 8.18 µg/mL) | 4 (≈ 4.09 µg/mL)
Cc1nc(-c2ccc(C(C)(C)C)cc2)cc(CN)c1C(=O)N[C@@H](CNS(N)(=O)=O)C(=O)N(C)[C@@H]1C(=O)N[C@@H](C)C(=O)N[C@H](C(=O)O)Cc2ccc(OC[C@H](O)CN)c(c2)-c2cc1cc(OC[C@H](O)CN)c2O [Example 63, (8S,11S,14S)-3,17-bis[(2R)-3-amino-2-hydroxy-propoxy]-14-[[(2S)-2-[[4-(amino-methyl)-6-(4-tert-butylphenyl)-2-methyl-pyridine-3-carbonyl]amino]-3-(sulfamoylamino)-propanoyl]-methyl-amino]-18-hydroxy-11-methyl-10,13-dioxo-9,12-diazatri-cyclo[13.3.1.12,6]icosa-1(18),2(20),3,5,15(19), 16-hexaene-8-carboxylic acid] | 0.5 (≈ 0.511 µg/mL) | 1 (≈ 1.02 µg/mL) | 16 (≈ 16.3 µg/mL) | 16 (≈ 16.3 µg/mL) | 16 (≈ 16.3 µg/mL)
